Holding throughout (type): cell-based
The target of experiment [1] is T1, ERα (Homo sapiens, UniProt P03372).
T1 sequence (P03372 1-595): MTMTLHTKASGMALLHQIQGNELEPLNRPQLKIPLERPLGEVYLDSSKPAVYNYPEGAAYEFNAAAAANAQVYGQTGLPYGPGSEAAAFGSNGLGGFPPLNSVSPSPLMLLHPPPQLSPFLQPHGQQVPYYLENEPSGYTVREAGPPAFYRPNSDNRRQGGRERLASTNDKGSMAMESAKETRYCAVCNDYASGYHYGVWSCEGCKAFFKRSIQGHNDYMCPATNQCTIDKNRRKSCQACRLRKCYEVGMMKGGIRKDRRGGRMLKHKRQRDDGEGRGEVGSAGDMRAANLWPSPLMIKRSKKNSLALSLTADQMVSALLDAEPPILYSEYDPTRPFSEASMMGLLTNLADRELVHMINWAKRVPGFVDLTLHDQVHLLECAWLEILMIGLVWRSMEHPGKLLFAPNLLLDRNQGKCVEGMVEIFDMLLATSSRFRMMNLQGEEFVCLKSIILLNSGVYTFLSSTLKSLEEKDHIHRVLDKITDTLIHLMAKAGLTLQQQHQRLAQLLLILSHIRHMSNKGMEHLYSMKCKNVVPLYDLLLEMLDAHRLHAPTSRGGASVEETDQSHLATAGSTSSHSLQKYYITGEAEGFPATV
As to the kind of experiment: ERα degradation in T-47D cells (immunoblot). On the set-up: host or cells: T-47D. The conditions noted are these: 10 nM, 4 hours. Here is the method:
T-47D (ATCC) cells were cultured in PRMI-1640 medium (30-2001, ATCC) containing 10% FBS (10099141C, Gibco) at 37°C and 5% CO2 until they entered the logarithmic growth phase. T-47D cells were seeded onto 6-well plates at a density of 3×10^5 cells per well, and incubated at 37°C with 5% CO2 for 24 hours. After cell attachment, 1 µL of compound in dimethyl sulfoxide solution (final concentration 0.15-1000 nM) was added and the cells were incubated for another 4 hours at 37°C, 5% CO2. After 4 hours, the culture medium was discarded, and each well was washed once with 1 mL of pre-chilled 1× DPBS. The cells were then lysed with 50 µL of RIPA lysis buffer (P0013B, Beyotime) and 1× protease inhibitor cocktail (P1005, Beyotime). After incubation on ice for 20 minutes, the cells were centrifuged at 14,000 g at 4°C for 30 minutes. The supernatant was carefully collected and analyzed for ERα protein levels by immunoblotting.

The subject of experiment [2] is MCF-7 cells. As to the kind of experiment: MCF-7 cell proliferation inhibition (CCK-8). Particulars: Homo sapiens, MCF7, 144 h, 6 days. How it is done:
The complete culture medium required for breast cancer MCF-7 cells (source ATCC) is DMEM (gibco, Product number: 11995-065) basal medium containing 10% fetal bovine serum. MCF-7 cells were seeded in 96-well plates at a density of 800 cells/well, and different concentrations of PROTAC compounds 1-55 provided in the embodiments of the present invention and the positive control sample ARV-471 (source: Inokai) were prepared to treat cells. The cells were incubated at 37 °C and 5% CO2 in a cell culture incubator for 6 days. Cell viability was detected using a CCK-8 kit (Beyotime, Product number: C0040) according to the manufacturer's instructions. The IC50 value of each PROTAC compound for 6 days was calculated using GraphPad Prism software based on the inhibition rate. Table 7: IC50 value for the inhibition of MCF-7 cell proliferation by PROTAC compounds of the present disclosure and positive control sample

The subject of experiment [3] is T-47D cells. As to the kind of experiment: T-47D cell proliferation inhibition (CCK-8). The conditions noted are these: Homo sapiens, T47D, 144 h, 6 days. How it is done:
The complete culture medium required for breast ductal carcinoma T-47D cells is 1640 (ATCC, Product number: A10491-01) basal medium containing 10% fetal bovine serum. T-47D cells were seeded in 96-well plates at a density of 3,000/well, and different concentrations of PROTAC compounds 1-55 provided in the embodiments of the present invention and the positive control sample ARV-471 (source: Inokai) were prepared to treat the cells and incubated at 37°C, 5% CO2 in a cell culture incubator for 6 days. According to the manufacturer's instructions, the CCK-8 kit (Beyotime, Product number: C0040) was used to detect cell viability. The IC50 of each compound for 6 days was calculated using GraphPadPrism software based on the inhibition rate. Table 6: IC50 value for the inhibition of T-47D cell proliferation by PROTAC compounds and positive control sample

Experiment [4] concerns the target T1, ERα. As to the kind of experiment: ERα degradation in MCF-7 cells (Western blot). Particulars: 10 nM, 4 hours. How it is done:
MCF-7 (ATCC) cells were cultured in DMEM medium (11995-065, Gibco) containing 10% FBS (10099141C, Gibco) at 37°C and 5% CO2 until they entered the logarithmic growth phase. MCF-7 cells were seeded at a density of 3×10^5 cells/well in a 6-well plate and incubated at 37°C, 5% CO2 for 24 hours. After cell attachment, 1 µL of compound in dimethyl sulfoxide solution (final concentration 0.15-1000 nM) was added and the cells were incubated for another 4 hours at 37°C, 5% CO2. After 4 hours, the culture medium was discarded, and each well was washed once with 1 mL of pre-chilled 1× DPBS. […] The supernatant was carefully collected and analyzed for ERα protein levels by immunoblotting.
Western blotting: The total protein concentration in the collected cell lysate supernatant was determined using the BCA protein concentration assay kit (enhanced) (P0009, Beyotime). Based on the total protein concentration determined by BCA, the protein concentration was adjusted to 1 µg/µL using RIPA lysis buffer and 5× SDS-PAGE protein loading buffer (MB01015, GenScript). […] Protein maps were analyzed for grayscale values using Image Studio Lite software. The grayscale correction value for each sample was calculated using the formula: grayscale correction value = grayscale value of the target protein / grayscale value of the corresponding internal reference. […]

Consider 2 compounds from patent publication EP4806892A1, “CEREBLON E3 UBIQUITIN LIGASE INHIBITOR” (GAN & LEE PHARMACEUTICALS CO., LTD., priority 2023, dated 2025).

As to `O=C1CCN(c2ccc3c(c2)CC2(CCN(C[C@H]4CC[C@@H](OC5CCN(c6ccc([C@@H]7c8ccc(O)cc8CC[C@@H]7c7ccccc7)cc6)CC5)CC4)CC2)O3)C(=O)N1` [ER-P-1, 1-(1'-(((1S,4S)-4-((1-(4-((1R,2S)-6-hydroxy-2-phenyl-1,2,3,4-tetrahydro-naphthalen-1-yl)phenyl)piperidin-4-yl)oxy)cyclohexyl)methyl)-3H-spiro [benzofuran-2,4'-piperidine]-5-yl)dihydropyrimidine-2,4(1H,3H)-dione], the “degradation rate of ERα in T-47D cells” value in experiment [1] is reported as “greater than or equal to 30%”. Further, the IC50 in experiment [2] was 0.845 µM.

In turn, `O=C1CCN(c2ccc3c(c2)OCC[C@H]2CN(C[C@H]4CC[C@@H](OC5CCN(c6ccc([C@@H]7c8ccc(O)cc8CC[C@@H]7c7ccccc7)cc6)CC5)CC4)CCN32)C(=O)N1` [ER-P-2, 1-((S)-3-(((1S,4R)-4-((1-(4-((1R,2S)-6-hydroxy-2-phenyl-1,2,3,4-tetrahydronaphthalen-1-yl)phenyl)piperidin-4-yl)oxy)cyclohexyl)methyl)-2,3,4,4a,5,6-hexahydro-1H-benzo[b]pyrazino[1,2-d][1,4]oxazepin-9-yl)dihydropyrimidine-2,4(1H,3H)-dione] showed an IC50 in experiment [3] of 0.0217 µM. In addition, the “degradation rate of ERα in MCF-7 cells” value in experiment [4] is reported as “greater than or equal to 30%”.
